Measurements from PubChem BioAssay (NCI).
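Test compounds were applied to cells in 96-well plates for 48 hours at 5 doses. GI50: concentration for 50% inhibition of growth. Definition used: TGI = concentration required for complete inhibition of growth.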

Assays:
Assay in all cases: NCI anticancer screen, dose series, 48 h
[1] = test system: HT29 colon
[2] = test system: LOX IMVI melanoma
[3] = test system: DU-145 prostate
[4] = test system: HL-60(TB) leukemia
[5] = test system: HOP-62 NSCLC
[6] = test system: HCT-15 colon
[7] = test system: CCRF-CEM leukemia
[8] = test system: SK-MEL-28 melanoma
[9] = test system: T-47D breast
[10] = test system: MALME-3M melanoma
[11] = test system: TK-10 renal
[12] = test system: SNB-19 CNS
[13] = test system: SN12C renal
[14] = test system: SF-295 CNS
[15] = test system: KM12 colon
[16] = test system: ACHN renal
[17] = test system: K-562 leukemia
[18] = test system: RPMI-8226 leukemia
[19] = test system: UACC-62 melanoma
[20] = test system: HS 578T breast
[21] = test system: SK-OV-3 ovarian
[22] = test system: PC-3 prostate
[23] = test system: U251 CNS
[24] = test system: CAKI-1 renal
[25] = test system: SNB-75 CNS
[26] = test system: MCF7 breast
[27] = test system: HOP-92 NSCLC
[28] = test system: RXF 393 renal
[29] = test system: 786-0 renal
[30] = test system: A498 renal
[31] = test system: MDA-MB-231 breast
[32] = test system: MOLT-4 leukemia
[33] = test system: IGROV1 ovarian
[34] = test system: OVCAR-5 ovarian
[35] = test system: NCI-H226 lung
[36] = test system: SR leukemia
[37] = test system: SK-MEL-2 melanoma
[38] = test system: SK-MEL-5 melanoma
[39] = test system: MDA-MB-435
[40] = test system: COLO 205 colon
[41] = test system: NCI-H460 lung
[42] = test system: OVCAR-3 ovarian
[43] = test system: A549 NSCLC
[44] = test system: UO-31 renal
[45] = test system: M14 melanoma
[46] = test system: OVCAR-8 ovarian
[47] = test system: SF-539 CNS

COC(=O)[C@]12CC[C@@H](C(=O)/C=C/c3cccnc3)[C@@H]1[C@H]1CC[C@@H]3[C@@]4(C)C/C(=C/c5cccnc5)C(=O)C(C)(C)[C@@H]4CC[C@@]3(C)[C@]1(C)CC2
GI50 [1]: 319 nM | TGI [1]: 1020 nM | GI50 [2]: 210 nM | TGI [2]: 442 nM | GI50 [3]: 773 nM | TGI [3]: 2030 nM | GI50 [4]: 292 nM | TGI [4]: 1510 nM | GI50 [5]: 789 nM | TGI [5]: 2340 nM | GI50 [6]: 247 nM | TGI [6]: 666 nM | GI50 [7]: 334 nM | TGI [7]: 1650 nM | GI50 [8]: 245 nM | TGI [8]: 565 nM | GI50 [9]: 405 nM | TGI [9]: 2420 nM | GI50 [10]: 201 nM | TGI [10]: 416 nM | GI50 [11]: 701 nM | TGI [11]: 2070 nM | GI50 [12]: 665 nM | TGI [12]: 1970 nM | GI50 [13]: 429 nM | TGI [13]: 1670 nM | GI50 [14]: 382 nM | TGI [14]: 1440 nM | GI50 [15]: 317 nM | TGI [15]: 1050 nM | GI50 [16]: 191 nM | TGI [16]: 348 nM | GI50 [17]: 309 nM | TGI [17]: > 100000 nM | GI50 [18]: 258 nM | TGI [18]: 838 nM | GI50 [19]: 327 nM | TGI [19]: 1050 nM | GI50 [20]: 395 nM | TGI [20]: 1930 nM | GI50 [21]: 2730 nM | TGI [21]: 6890 nM | GI50 [22]: 412 nM | TGI [22]: 2090 nM | GI50 [23]: 360 nM | TGI [23]: 1340 nM | GI50 [24]: 716 nM | TGI [24]: 2000 nM | GI50 [25]: 1350 nM | TGI [25]: 2630 nM | GI50 [26]: 387 nM | TGI [26]: 1830 nM | GI50 [27]: 434 nM | TGI [27]: 1730 nM | GI50 [28]: 219 nM | TGI [28]: 509 nM | GI50 [29]: 374 nM | TGI [29]: 1330 nM | GI50 [30]: 224 nM | TGI [30]: 947 nM | GI50 [31]: 223 nM | TGI [31]: 508 nM | GI50 [32]: 359 nM | TGI [32]: 1770 nM | GI50 [33]: 241 nM | TGI [33]: 570 nM | GI50 [34]: 369 nM | TGI [34]: 1340 nM | GI50 [35]: 260 nM | TGI [35]: 597 nM | GI50 [36]: 281 nM | TGI [36]: 1270 nM | GI50 [37]: 296 nM | TGI [37]: 1020 nM | GI50 [38]: 335 nM | TGI [38]: 983 nM | GI50 [39]: 204 nM | TGI [39]: 420 nM | GI50 [40]: 357 nM | TGI [40]: 1350 nM | GI50 [41]: 510 nM | TGI [41]: 1570 nM | GI50 [42]: 231 nM | TGI [42]: 514 nM | GI50 [43]: 401 nM | TGI [43]: 2310 nM | GI50 [44]: 167 nM | TGI [44]: 331 nM | GI50 [45]: 310 nM | TGI [45]: 1010 nM | GI50 [46]: 388 nM | TGI [46]: 1870 nM | GI50 [47]: 207 nM | TGI [47]: 473 nM
